Measured values taken from patent US5883074A, “Potentiators of antibacterial agents” (priority 1995, dated 1999).

How the values were obtained:
[1] = tested on: Enterococcus faecium; experiment: Ampicillin potentiation screen; assay type: cell-based; details: highly ampicillin-resistant Enterococcus faecium, ampicillin alone
Procedure: The ampicillin potentiation screen is a high-throughput (96 well), whole cell assay in which compounds of unknown pharmacological activity are tested for their ability to induce an ampicillin-susceptible phenotype in highly ampicillin-resistant Enterococcus faecium (MIC of ampicillin>100μg/ml). These highly ampicillin-resistant bacteria are grown in the presence of ampicillin and various test compounds. The concentration of ampicillin used is well below the MIC for the resistant cells, but higher than the MIC for the isogeneic susceptible cells. Therefore, resistant cells can grow in the presence of the ampicillin without test compound, but the growth of susceptible cells is repressed. Growth is assessed after 5-24 hours by turbidity. Compounds are also tested for intrinsic antibacterial activity in the absence of ampicillin. Compounds which repress Enterococcus faecium growth when used together with ampicillin, which show no, or only a little, intrinsic antibacterial activity, are considered potentiators. […]
A fresh inoculum of E. faecium cells are grown at 35° C. in Brain-Heart Infusion Broth (BHI) overnight and then diluted 1/50 in the same medium. […] The plate is placed in a humidified 35° C. incubator for 24 hours, and cell growth or inhibition is read as turbidity (OD600). […]

[2] = tested on: MRSA Col cells; experiment: Time-kill curve with methicillin; assay type: cell-based, Staphylococcus aureus
Procedure: FIG. 3a is a graph of the number of viable MRSA Col cells/ml versus growth time in hours as determined by the method of Example 4. The graph presents the time kill curve for the first potentiating compound from FIG. 1 at 10 μg/ml with methicillin at 20 μg/ml, and curves for controls (drug-free, methicillin only, and potentiator only). Viable cell counts for all controls were greater than 5×10^8 cells/ml at 24 hours, while the viable cell count for methicillin plus potentiator was approximately 5×10^3 cells/ml after 24 hours.
A standard time-kill method (see Eliopolous & Moellering, Ch. 13 in Antibiotics in Laboratory Medicine, 3rd ed., Lorian ed., at pp. 441-444) is used to characterize whether the potentiator-drug combination is bacteriostatic or bactericidal. As controls, normal growth of the pathogen (without drug or potentiator) and the effects of the drug alone and the potentiator alone are assessed using the same inoculum culture as is used in the combination time-kill test. Either bacteriostatic or bactericidal effect should be confirmed for the potentiators to progress to further testing.

[3] = tested on: MRSA; experiment: Potentiation screening assay: methicillin MIC reduction in MRSA; assay type: cell-based, Staphylococcus aureus; details: 0, 5, and 10 μg/ml test compound
Procedure: After regrowth at 35° C. to an OD600 of 0.2-0.4 (1-2 hrs.), the cells are diluted 1/1000 in MHB. […] The plate is placed in a humidified 35° C. incubator for 5-24 hours, and cell growth or inhibition is read as turbidity (OD600). Two positive and one negative controls for growth are cells grown MHB, cells grown in MHB plus 20 μg/ml methicillin alone (without test compound), and uninoculated MHB respectively.
Compounds which meet the first two criteria for follow-up are evaluated in a standard microdilution assessment of the MIC with methicillin for MRSA. (see Lorian, Antibiotics in Laboratory Medicine, 3rd ed., pp. 72-75 (1991).) In order to be carried further, the MIC of methicillin preferably is reduced in the presence of the potentiator to at most twice the MIC of a susceptible strain for methicillin.
MICs for the compounds were determined in the presence of 0, 5, and 10 μg/ml of each compound. MRSA cells were grown in the presence of 0, 5, and 10 μg/ml test compound and concentrations of methicillin obtained from serial two-fold dilutions starting at 1024 μg/ml to 0.002 μg/ml (This range can be extended or refined as appropriate.) as follows: A fresh inoculum of MRSA cells was grown at 35° C. in Mueller-Hinton Broth (MHB) overnight and then diluted 1/50 in the same medium. After regrowth at 35° C. to an OD600 of 0.2-0.4 (1-2 hrs.), the cells were diluted 1/1000 in MHB. […] The plate was placed in a humidified 35° C. incubator for 24 hours, and cell growth or inhibition was read as turbidity (OD600).

[4] = tested on: MRSA strain Col; experiment: Methicillin potentiation (methicillin MIC reduction), FIG. 1; assay type: cell-based, Staphylococcus aureus; details: potentiator at 0, 5, and 10 μg/ml
Procedure: (§1) The methicillin MIC at 0, 5, and 10 μg/ml of the potentiating molecules is shown. The structures of the two potentiating molecules are also shown. These potentiators were identified by screening by the methods of Examples 1 and 2, and the MIC reduction evaluated by the method of Example 3.
(§2) Compounds which meet the first two criteria for follow-up are evaluated in a standard microdilution assessment of the MIC with methicillin for MRSA. (see Lorian, Antibiotics in Laboratory Medicine, 3rd ed., pp. 72-75 (1991).) In order to be carried further, the MIC of methicillin preferably is reduced in the presence of the potentiator to at most twice the MIC of a susceptible strain for methicillin. (However, that level of reduction is not essential, since in particular circumstances a potentiator which provides a lesser reduction in the MIC can be useful.) In cases where susceptibility breakpoints are not available or the organism is not resistant to the drug whose action is being potentiated, the MIC preferably must be reduced by several twofold dilutions. We describe herein two compounds identified as having methicillin potentiating activity. These two potentiators meet the first three desired pharmacologic criteria as described above: (1) Potentiation of an anti-bacterial agent, (2) Little or no inhibition of the target organisms when used alone, and (3) Ability to reduce the MIC of an antibacterial agent to less than or equal to two times the MIC of an equivalent bacterial strain susceptible to that agent.
(§3) MICs for the compounds were determined in the presence of 0, 5, and 10 μg/ml of each compound. MRSA cells were grown in the presence of 0, 5, and 10 μg/ml test compound and concentrations of methicillin obtained from serial two-fold dilutions starting at 1024 μg/ml to 0.002 μg/ml (This range can be extended or refined as appropriate.) as follows: A fresh inoculum of MRSA cells was grown at 35° C. in Mueller-Hinton Broth (MHB) overnight and then diluted 1/50 in the same medium. After regrowth at 35° C. to an OD600 of 0.2-0.4 (1-2 hrs.), the cells were diluted 1/1000 in MHB. In a microtiter plate, 50 μl of this diluted culture were combined with 50 μl MHB containing 0, 10, or 20 μg/ml test compound to give starting growth conditions of 5×10^5 cfu/ml in MHB, with 0, 5, or 10 μg/ml test compound. The plate was placed in a humidified 35° C. incubator for 24 hours, and cell growth or inhibition was read as turbidity (OD600).

[5] = tested on: MRSA strain MRSA76; experiment: as above; assay type: cell-based, Staphylococcus aureus; details: potentiator at 0, 5, and 10 μg/ml
Procedure: as §1, §2, §3

[6] = tested on: MRSA; experiment: Specificity: intrinsic antibacterial activity without antibacterial agent; assay type: cell-based, Staphylococcus aureus; details: test compound alone, without methicillin
Procedure: In order to ascertain that the test compound is not primarily responsible for inhibition of growth, MRSA cells are grown in the presence of 5 μg/ml test compound as follows: A fresh inoculum of MRSA cells is grown at 35° C. in Mueller-Hinton Broth (MHB) overnight and then diluted 1/50 in the same medium. After regrowth at 35° C. to an OD600 of 0.2-0.4 (1-2 hrs.), the cells are diluted 1/1000 in MHB. In a microtiter plate, 50 μl of this diluted culture is combined with 50 μl MHB containing 10 μg/ml test compound to give starting growth conditions of 5×10^5 cfu/ml in MHB, with 5 μg/ml test compound. The plate is placed in a humidified 35° C. incubator for 5-24 hours, and cell growth or inhibition is read as turbidity (OD600). To be carried forward to the next step of the potentiator screening assay, the test compound should have little or no intrinsic anti-staphylococcal activity (growth should be at least 75% of the growth of the positive control without methicillin, corrected for background), or that activity should be explicable without indicating the probability of human toxicity.

[7] = tested on: methicillin sensitive strain Col8A; experiment: Methicillin MIC in methicillin sensitive strain with potentiator, FIG. 1; assay type: cell-based, Staphylococcus aureus; details: potentiator at 0, 5, and 10 μg/ml
[8] = tested on: MRSA strain Col; experiment: Imipenem potentiation (MIC reduction), FIG. 4; assay type: cell-based, Staphylococcus aureus; details: compound at 10 μg/ml
Procedure: (§4) FIG. 4 is a table showing the imipenem potentiation effect of the second compound from FIG. 1 at 10 μg/ml in 5 MRSA strains (Col, Col 2278, sa 038, Spain 356, and Spain 195).

[9] = tested on: MRSA strain Spain 195; experiment: Imipenem potentiation (MIC reduction), FIG. 4; assay type: cell-based, Staphylococcus aureus; details: compound at 10 μg/ml
Procedure: as §4

[10] = tested on: MRSA strain Col 2278; experiment: Imipenem potentiation (MIC reduction), FIG. 4; assay type: cell-based, Staphylococcus aureus; details: compound at 10 μg/ml
Procedure: as §4

[11] = tested on: MRSA strain Col; experiment: Potentiating effect for 17 antimicrobial agents (MIC reduction), FIG. 2; assay type: cell-based, Staphylococcus aureus
Procedure: FIG. 2 is a table showing the potentiating effect of one of the potentiating molecules from FIG. 1 for 17 antimicrobial agents in MRSA strain Col. The MIC is shown at 0, 5, and 10 μg/ml of potentiator.
as §3
The procedures used in Examples 1-3 to determine potentiation activity, and MIC reduction have been carried out using larixol acetate as the test compound and various antibacterial agents in place of methicillin. […]

MIC [1] [µg/mL]	effect on the MIC for methicillin [3]	reduction of methicillin MIC [4]	reduction of methicillin MIC [5]	reduction of methicillin MIC [7]	imipenem MIC reduction [8]	imipenem MIC reduction [9]	imipenem MIC reduction [10]	MIC reduction of antimicrobial agents ([11]; potentiator at 0, 5, and 10 μg/ml, range of β-lactams, including methicillin, cefazolin, and imipenem)	MIC with potentiator relative to MIC of the antibacterial agent in the absence of the potentiator ([11]; some β-lactams, larixol acetate as potentiator)	SMILES	viable cell count, methicillin plus potentiator ([2]; potentiator 10 μg/ml with methicillin 20 μg/ml, after 24 hours)	viable cell count, potentiator only (control) ([2]; potentiator only, at 24 hours)	intrinsic antimicrobial activity [6]
> 100										CC1(C)S[C@@H]2[C@H](NC(=O)[C@H](N)c3ccccc3)C(=O)N2[C@H]1C(=O)O [ampicillin]			
	reduce the MIC for methicillin	reducing the methicillin MIC	reducing the methicillin MIC	absence of a reduction in the MIC						COc1ccc2c(c1)CCC1C2CCC2CC(O)CCC21C (stereo not drawn) [HMM-dodecahydrochrysene, 2-hydroxy-8-methoxy-4a-methyl-1,2,3,4,4a,4b,5,6,10b,11,12,12a-dodecahydrochrysene]	approximately 5×10^3 cells/ml	greater than 5×10^8 cells/ml	not exhibiting intrinsic antimicrobial activity
	reduce the MIC for methicillin	reducing the methicillin MIC	reducing the methicillin MIC	absence of a reduction in the MIC	three orders of magnitude	three orders of magnitude	three orders of magnitude	Significant MIC reduction	less than 10^-3	C=CC(C)(O)CCC1C(=C)CC(OC(C)=O)C2C(C)(C)CCCC12C (stereo not drawn) [larixol acetate]			not exhibiting intrinsic antimicrobial activity
